Test results published in US20010005714A1, “AMPHIPATHIC MOLECULES AS CHOLESTEROL AND OTHER LIPID UPTAKE INHIBITORS” (priority 1996, published 2001).
Values belong to the molecule of their own block, whether it stands above or below them.

How the values were obtained:
normal human BBMV = experiment: [14C]Cholesterol uptake from egg PC vesicles by normal human duodenal BBMV; assay type: biochemical; conditions: human duodenal BBMV
Description: Biopsy samples from human duodenum, 20 to 30 mg of wet tissue each, were suspended in 200 μl buffer (12 mM Tris HCl pH 7.2, 300 mM mannitol, 5 mM EGTA, 1 mM phenylmethylsulfonyl fluoride), frozen in liquid nitrogen and stored at −80° C. prior to use. BBMV were prepared by Mg^+2 precipitation (Hauser et al, Biochim. Biophys. Acta 602 567-577 (1980)) as described in detail by Booth et al (Lancet 1 1066-1069 (1985)). Proteinase K treatment of the BBMV was carried out according to Thurnhofer and Hauser (Biochim. Biophys. Acta 1024 249-262 (1990)). […] Small unilamellar phesrholipid vesicles were prepared by tip sonication (Schulthess, Biochemistry 33 4500-4508 (1994)).
(I) Egg PC small unilamellar vesicles containing […] (^14C] cholesterol and BBMV both dispersed in 10 mM Tris-HCl pH 7.2, 0.15 M NaCl, 5 mM EDTA were incubated at room temperature. After timed intervals phospholipid vesicles and BBMV were separated by centrifugation at 115000 g for 2 min in a Beckman airfuge. The radioactivities present in pellet and supernatant were determined by counting aliquots in a Beckman LS 7500 liquid scintillatior counter. Fusion of egg PC small unilamellar vesicles and BBMV as a possible mechanism of cholesterol uptake was ruled out as discussed in detail in previous studies (Thurnhofer and Hauser, Biochemistry 29 2142-2148 (1990); Compassi, Biochemistry 34 16473-16482 (1995) and Schulthess, J. Lipid. Res. 37 2405-2419 (1996)).
The experimental data were computer-fitted using the following equation valid for single-exponential exchange reactions: X=X∞+[XO−X∞]e^-k1^[(a+b)/a]t, where XO, X and X∞represent the fractions of the labelled lipid in the donor at times 0, t and at equilibrium, respectively. K1 is the pseudo-first-order rate constant of the reaction and a and b are the lipid pools of acceptor and donor, respectively (McKay, Nature 142 997-998 (1938) and Mutsch et al, Biochemistry 25 2134-2140 (1986).
Kinetic measurements were also carried out in the presence of inhibitors; synthetic peptides or apolipoproteins were added to the […] of donor and acceptor vesicles. Cholesterol uptake by native and proteinase K treated BBMV was determined in the presence of increasing concentrations of Ac-18A-NH2, the difference between cholesterol uptake by native and proteinase K treated BBMV is referred as protein-mediated cholesterol uptake in FIG. 6. The IC50 values were determined according to Methods Enzymol. 37 3-22 (1975).

BBMVs = experiment: Inhibition of cholesteryl oleate uptake by BBMVs by peptides of varying lengths (Example 8); assay type: biochemical; conditions: for Inhibition of Cholesteryloleate Uptake In. %: donor 0.05 mg total lipid/ml, acceptor 5 mg protein/ml, 23° C.
Description: going from one peptide to the other (top→bottom) 3 amino acids were removed from the N-terminus. The inhibitory effect of the four peptides listed above were compared at 120 μg peptide/ml. The lipid uptake by BBMVs was measured in the presence of 120 μg peptide/ml each as described below.
Donor and acceptor particles dispersed in Tris/NaCl buffer were centrifuged in a Beckman airfuge at 115000 g is for 2 min at 4° C. The dispersion of the acceptor yielded a pellet which was resuspended in Tris/NaCl buffer. Varying amounts of inhibitor dissolved in the same buffer were added to the acceptor dispersion and at time zero the dispersiorn of acceptor with or without inhibitor was mixed with the top 80% of the supernatant obtained by centrifugation of the donor dispersion. The final concentration of the donor was 0.05 mg total lipid/ml and that of the acceptor was 5 mg protein/ml. The resulting dispersion was incubated at 23° C. and after timed intervals the sterol uptake was stopped by dilution of the incubation medium with 2 volumes of Tris/NaCl buffer. BBMV were separated from the donor by centrifugation in the Beckman airfuge at 115000 g for 2 min at 4° C. The radioactivities in the supernatant containing the donor and in the pellet containing the BBMV (acceptor) were determined in a Beckman LS 7500 scintillation counter.

[1] = system: brush border membrane vesicles (BBMV); experiment: IC50 of cholesteryl oleate uptake at the brush border membrane (Example 6); assay type: biochemical, rabbit; conditions: donor 0.1 mg total lipid/ml, acceptor 2 mg protein/ml; 20 min at 25° C.
Description: An appropriate amount of inhibitor dissolved in 84.5 μl buffer (0.05 M Tris pH 7.4, 0.15 M NaCl) is mixed in an Eppendorf tube at time zero with 5 μl of a dispersion of donor and 10.5 μl of a dispersion of acceptor (i.e. brush border membrane vesicles (BBMV)) in the same buffer. The final concentration of the donor vesicles was 0.1 mg total lipid/ml, that of the acceptor was 2 mg protein/ml. The resulting mixture was incubated for 20 min at 25° C., and the reaction was stopped by adding 60 μl of the incubation medium to 120 μl ice-cold bufferin an airfuge tube. The diluted dispersion was immediately centrifuiaed in the airfuge at […] for 2 min. at 4° C. to separate donor vesicles from BBMV. Two 60 μl aliquots of the donor (=supernatant) were counted in a Beckman LS-7500 liquid scintillating counter to determine the radioactivity remaining in tbe donor.
Small unilamellar egg phosphatidycholine (PC) vesicles containing 1 mol % of cholesterol oleate and a trace amount of ^3H-cholesterol oleyl ether were made by dissolving the appropriate amounts of the lipids in CHCl3/CH3OH, (2:1, by vol.), taking the solution to dryness on a rotary evaporator and drying the residue in vacuo. The dried lipid film was dispersed in the appropriate volume of buffer by hand-shaking. The lipid dispersion was subjected to tip sonication as described in Brunner et al, J. Biol. Chem. 253 7538-7546 (1978). The resulting donor dispersion in buffer was centrifuged in the airfuge at 100000 g for 2 min at […]. Only the top 80% of the donor dispersion after centrifugation was used in the lipid uptake experiment.
BBMV were prepared from frozen rabbit small intestine according to Hauser et al (Biochim. Biophys. Acta 602 567-577 (1980)). Prior to use in the uptake experiment determining IC50 values the BBMV were washed to remove any free protein liberated from the BBM. To this end the BBMV dispersion was diluted with buffer 1:1 in an airfuge tube, and the diluted dispersion was centrifuged in the airfuga at 100000 g for 2 min at […]. The supernatant was is carefully decanted, the pellet was resuspended in buffer to the original volume of the BBMV dispersion, and the dispersion was homogenized. […]

rabbit BBMV = experiment: Dose response of cholesteryl oleate uptake from egg PC SUVs by rabbit BBMV (FIG. 4B); assay type: biochemical; conditions: donor 0.05 mg/ml total lipid, acceptor 1.7 mg protein/ml, 20 min at 25° C., curve fits of FIG. 4B
Description: Small unilamellar vesicles of egg phosphatidylcholine containing 1 mol % cholesteryl oleate and a trace amount of (1,2-^3H2 (N)]-cholesteryl oleyl ether (37 Ci/mmol, from Amersham, UK) as the donor were made as described in Example 1 and BBMVs as the acceptor were prepared from rabbit small intestine (see Example 1). Donor and acceptor both dispersed in Tris/NaCl buffer (0.05 M Tris HCl pH 7.4, 0.15 M NaCl, 0.02% NaN3) and a solution of human apo A-1 or sheep HDL in the same buffer were mixed at time zero (total volume: 0.1 ml) so that the final concentrations of donor and acceptor were 0.05 mg/ml total lipid and 1.7 mg protein/ml, respectively. After incubation of the suspension of donor and acceptor in the presence of inhibitor for 20 min. at 25° C., the reaction was stopped by dilution with 2 vol. of Tris/NaCl buffer. Donor and acceptor were separated by centrifugation in the airfuge at 115,000 g for 2 min. at […]., and the radioactivities in the supernatant containing donor vesicles and in the pellet containing BBMVs were determined in a BECKMAN™ LS 7500 scintillation counter. […]
Experimental conditions were as described for FIG. 4A. The cholesterol absorption activity of BBMVs measured in the absence of inhibition was taken as 100% and the loss in activity observed in the presence of inhibitor is expressed as %. […]

[2] = taken from Chapman (1986), for comparison; cited from earlier work

Molecule: Ac-Asp-Trp-Leu-Alα—Lys-Asp-Tyr-Phe-Lys-Lys-Alα —Leu-Val-Glu-Glu-Phe-Alα—Lys-NH2 [scrambled Ac-18A-NH2, reference compound]
inhibition of protein-mediated cholesterol uptake (in words) (normal human BBMV): inactive

Molecule: Ac-Lys-Alα-Phe-Tyr-Asp-Lys-Val-Alα-Glu-Lys-Leu-Lys-Glu-Alα α-Phe-NH2 (Ac-KAFYDKVAEKLKEAF-NH2) [Ac-15A-NH2]
inhibitory effect on cholesteryl oleate uptake (in words, footnote) (BBMVs; 120 μg peptide/ml): Useful inhibitory effect is seen with Peptides Nos. 1 and 2. | Inhibition of Cholesteryloleate Uptake In. % (BBMVs; 120 μg peptide/ml): 85% | cholesteryl oleate uptake inhibition activity relative to Ac-18A-NH2 (BBMVs; brush border membrane vesicle model): 85%

Molecule: Apo C-1: natural (human) apoprotein C-I (TPDVSSALDKLKEFGNTLEDKARELISRIKQSELSAKMREWFSETFQKVKEKLKIDS; Apolipoprotein C-I; UniProt P02654 27-83, looked up)
IC50 [1]: 1.8 ± 0.4 µM | IC50 (μg/mL) of cholesteryl oleate uptake at the brush border membrane [1]: 12 ± 2 µg/mL

Molecule: CH3CO—VAEKLKEAF—NH2 (Ac-VAEKLKEAF-NH2) [Ac-9A-NH2]
Inhibition of Cholesteryloleate Uptake In. % (BBMVs; 120 μg peptide/ml): 0%

Molecule: CH3CO—YDKVAEKLKEAF—NH2 (Ac-YDKVAEKLKEAF-NH2) [Ac-12A-NH2]
Inhibition of Cholesteryloleate Uptake In. % (BBMVs; 120 μg peptide/ml): 20%

B1: Apo A-4: natural (human) apoprotein A-IV (protein, UniProt P06727 21-396, looked up)
Apolipoprotein A-IV: EVSADQVATVMWDYFSQLSNNAKEAVEHLQKSELTQQLNALFQDKLGEVNTYAGDLQKKLVPFATELHERLAKDSEKLKEEIGKELEELRARLLPHANEVSQKIGDNLRELQQRLEPYADQLRTQVSTQAEQLRRQLTPYAQRMERVLRENADSLQASLRPHADELKAKIDQNVEELKGRLTPYADEFKVKIDQTVEELRRSLAPYAQDTQEKLNHQLEGLTFQMKKNAEELKARISASAEELRQRLAPLAEDVRGNLRGNTEGLQKSLAELGGHLDQQVEEFRRRVEPYGENFNKALVQQMEQLRQKLGPHAGDVEGHLSFLEKDLRDKVNSFFSTFKEKESQDKTLSLPELEQQQEQQQEQQQEQVQMLAPLES
IC50 [1]: 0.7 ± 0.1 µM | IC50 (μg/mL) of cholesteryl oleate uptake at the brush border membrane [1]: 32 ± 4 µg/mL

B2: rabbit apo A-1: rabbit apolipoprotein A-1, literature values for comparison (protein, UniProt P09809 25-266, looked up)
Apolipoprotein A-I: DEPRSSWDKIKDFATVYVDTVKDSGREYVAQFEASAFGKQLNLKLLDNWDSLSSTVSKLQEQLGPVTQEFWDNLEKETEGLREEMNKDLQEVRQKVQPYLDEFQKKWQEEVERYRQKVEPLGAELRESARQKLTELQEKLSPLAEELRDSARTHVDTLRTKLAPYSNELQQRLAARLESIKEGGGASLAEYQAKAREHLSVLSEKARPALEDLRQGLLPVLESFKASVQNVLDEATKKLNTQ
modifications: Apolipoprotein A-I
notes: rabbit apolipoprotein A-1, literature values for comparison
isoelectric point [2]: 5.50

The next lines start with results.

IC50 [1]: 0.6 ± 0.1 µM | IC50 (μg/mL) of cholesteryl oleate uptake at the brush border membrane [1]: 4.8 ± 0.8 µg/mL
Molecule: Apo C-31: natural (human) apoprotein C-III1

IC50 [1]: 0.5 ± 0.2 µM | IC50 (μg/mL) of cholesteryl oleate uptake at the brush border membrane [1]: 4.2 ± 0.2 µg/mL
Molecule: Apo C-32: natural (human) apoprotein C-III2

IC50 [1]: 2.9 ± 0.2 µM | IC50 (μg/mL) of cholesteryl oleate uptake at the brush border membrane [1]: 95 ± 7 µg/mL
Molecule: Apo E: natural (human) apoprotein E

IC50 [1]: 3.8 ± 0.3 µM | IC50 (μg/mL) of cholesteryl oleate uptake at the brush border membrane [1]: 66 ± 5 µg/mL
Molecule: apo A-II: human apolipoprotein A-2
IC-50 (rabbit BBMV): 66 µg/mL

IC50 [1]: 2.1 ± 0.1 µM | IC50 (μg/mL) of cholesteryl oleate uptake at the brush border membrane [1]: 19 ± 1 µg/mL
B3: Apo C-2: natural (human) apoprotein C-II (protein, UniProt P02655 29-101, looked up)
Apolipoprotein C-II: DEMPSPTFLTQVKESLSSYWESAKTAAQNLYEKTYLPAVDEKLRDLYSKSTAAMSTYTGIFTDQVLSVLKGEE
modifications: Apolipoprotein C-II
